{
  "source": "paper PMC10682503",
  "about": "“Structural and functional basis of inositol hexaphosphate stimulation of NHEJ through stabilization of Ku-XLF interaction” (Nucleic Acids Research, 2023)",
  "key": {"Ku": {"target": "Ku", "design": "method as in PMID 18776215", "settings": "competition assays with 3H-IP6; cited from earlier work"}, "KuFL": {"target": "T1, KuFL (Homo sapiens, UniProt P12956+P13010)", "T1 construct": "The full-length human Ku heterodimer subunits (Ku70 1–609, Ku80 1–732); 10x His-tag with TEV site (N); made in house; host or cells: Sf21 insect cells (baculovirus, MultiBac)", "assay": "nanoDSF thermal stability of KuFL", "settings": "in the absence of DNA, increasing IP6 concentrations", "procedure": "nano-Differential Scanning Fluorimetry. nanoDSF measurements were performed on a Tycho NT.6 device (NanoTemper) with KuFL dialyzed against buffer 20 mM Tris HCl pH 8, 150 mM NaCl, 5 mM β-mercaptoethanol. We used 9 µL of KuFL at 5 µM in absence or presence of DNA at 7.5 µM to obtain a (1:1.5) molar ratio. Measurements were performed in presence of IP6 concentrations ranging from 0 to 10 µM. Stocks solutions of IP6 and analogues are prepared so that 1 µL of IPs solutions are used in the 10 µL capillary for all concentrations tested. Each point corresponds to an average of three measurements. The temperature of transition that corresponds to the change of environment of the tryptophan is deduced from the first inflexion point of the 330 nm/350 nm ratio versus temperature."}, "[1]": {"target": "T2, Ku-2E (Ku70-K357E, Ku80-K481E) (Homo sapiens, UniProt P12956+P13010, K357E/K481E)", "T2 construct": "10x His-tag with TEV site (same vector as KuFL) (N); made in house; host or cells: Sf21 insect cells", "T2 sequence (P12956 whole entry K357E)": "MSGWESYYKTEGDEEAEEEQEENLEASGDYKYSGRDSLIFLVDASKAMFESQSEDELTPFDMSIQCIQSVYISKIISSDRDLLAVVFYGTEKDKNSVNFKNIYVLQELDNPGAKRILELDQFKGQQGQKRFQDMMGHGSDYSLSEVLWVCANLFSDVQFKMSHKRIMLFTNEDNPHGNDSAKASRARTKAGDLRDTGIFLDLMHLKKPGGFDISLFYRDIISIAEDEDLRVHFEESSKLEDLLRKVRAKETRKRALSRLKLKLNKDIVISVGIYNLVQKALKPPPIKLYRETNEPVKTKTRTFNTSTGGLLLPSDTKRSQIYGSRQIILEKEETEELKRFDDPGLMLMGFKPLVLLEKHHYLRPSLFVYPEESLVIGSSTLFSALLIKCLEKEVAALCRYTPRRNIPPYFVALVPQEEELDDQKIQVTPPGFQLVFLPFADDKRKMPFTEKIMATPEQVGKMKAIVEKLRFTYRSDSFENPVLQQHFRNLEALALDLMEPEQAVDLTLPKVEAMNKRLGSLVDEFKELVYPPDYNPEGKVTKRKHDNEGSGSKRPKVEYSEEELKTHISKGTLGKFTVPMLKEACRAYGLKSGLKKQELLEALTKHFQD", "T2 sequence (P13010 whole entry K481E)": "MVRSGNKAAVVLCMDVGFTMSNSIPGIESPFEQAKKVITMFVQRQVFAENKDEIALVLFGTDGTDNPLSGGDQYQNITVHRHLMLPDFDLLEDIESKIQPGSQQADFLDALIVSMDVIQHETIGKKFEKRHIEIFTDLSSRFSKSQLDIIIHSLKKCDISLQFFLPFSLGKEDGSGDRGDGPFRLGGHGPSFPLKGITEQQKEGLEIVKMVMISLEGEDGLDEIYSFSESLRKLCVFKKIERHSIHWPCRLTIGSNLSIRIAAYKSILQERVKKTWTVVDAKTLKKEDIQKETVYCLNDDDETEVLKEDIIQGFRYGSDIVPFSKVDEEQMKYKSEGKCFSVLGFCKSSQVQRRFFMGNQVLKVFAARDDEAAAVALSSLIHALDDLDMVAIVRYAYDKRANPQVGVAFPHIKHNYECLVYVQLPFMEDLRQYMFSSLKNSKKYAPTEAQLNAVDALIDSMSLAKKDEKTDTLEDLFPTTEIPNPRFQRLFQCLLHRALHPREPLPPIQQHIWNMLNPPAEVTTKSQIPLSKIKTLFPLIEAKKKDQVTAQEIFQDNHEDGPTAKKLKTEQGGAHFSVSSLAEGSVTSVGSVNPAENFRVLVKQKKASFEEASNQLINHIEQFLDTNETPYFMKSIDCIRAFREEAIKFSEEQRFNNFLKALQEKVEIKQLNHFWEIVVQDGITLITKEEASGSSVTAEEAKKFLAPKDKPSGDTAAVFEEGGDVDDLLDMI", "assay": "nanoDSF thermal stability of Ku-2E", "settings": "Ku-2E with DNA"}, "KuFL-DNA interaction": {"target": "T3, KuFL-DNA interaction (Homo sapiens, UniProt P12956+P13010)", "T3 construct": "The full-length human Ku heterodimer subunits (Ku70 1–609, Ku80 1–732); 10x His-tag with TEV site (N); made in house; host or cells: Sf21 insect cells (baculovirus, MultiBac)", "assay": "switchSENSE kinetics of KuFL interaction with 48bp DNA", "format": "binding", "settings": "IP6 3 μM", "procedure": "switchSENSE: A DRX 2400 instrument and a multi-purpose 48bp chip were used for switchSENSE measurements (both Dynamic Biosensors GmbH; Planegg, Germany). The sample and running buffer was in 10 mM Tris HCl pH 7.4, 140 mM NaCl, 50 µM EDTA, 0.05 % Tween-20, 50µM EDTA. Kinetics experiments of Ku interaction with DNA in presence or absence of IP6 were performed on a DRX2 instrument. Complementary DNA to the strand immobilized on the chip was first hybridized on the measurement electrodes. The association and dissociation between Ku and DNA, with or without IP6 (3 µM) at Ku concentration (0-15-30-60-120-240 nM were measured in a flow rate of 200 µL/min. Kinetics experiments of Ku interaction with DNA and XLF with or without DNA were performed on a Helix instrument. The sample and running buffer was in 10 mM Tris HCl pH 7.4, 140 mM NaCl, 50 µM EDTA, 0.05 % Tween-20 with or without IP6 (20 µM). The flow rate of all conditions are at 500 µL/min."}, "S. cerevisae Ku": {"system": "S. cerevisae Ku", "design": "method as in PMID 11953323", "settings": "cited from earlier work"}, "[2]": {"target": "T2, Ku-2E (Ku70-K357E, Ku80-K481E)", "assay": "ITC, Ku-2E mutant with IP6", "format": "binding", "procedure": "Purification of Ku full-length (KuFL) for cryo-EM experiments was carried out as described previously ([5]). Expression and purification of KuFL for biophysical experiments was carried out as described previously ([20]). The full-length human Ku heterodimer subunits (Ku70 1–609, Ku80 1–732) were cloned into a Multibac vector ([21]). The construct has a 10× His-tag and a TEV site on the N-terminus of Ku80 and no-tag on Ku70. Protein production was initiated in Sf21 cells by infection with the baculovirus stock at MOI of 5 × 10^−3 and cells were collected 5–6 days after the infection (3–4 days after the proliferation arrest). Cells were sonicated and the supernatant was incubated with Benzonase (300 units for 30 min at 4°C). The Ku heterodimer was purified on a NiNTA-Agarose affinity column (Protino, Macherey Nagel) with a 1 M NaCl wash step to remove DNA excess. The eluted Ku was then bound onto an anion exchange column (Resource Q, Cytiva) equilibrated in 20 mM Tris pH 8.0, 50 mM NaCl, 50 mM KCl, 10 mM β-mercaptoethanol and eluted with a salt gradient. […]\nCalorimetry. Interactions between KuFL and inositol phosphates (IPs) (IP6 and IP6 analogues) were determined by Isothermal Titration Calorimetry (ITC) using a VP-ITC calorimeter (Malvern). […] The free energy of binding (ΔG) and the entropy (ΔS) were determined using the classical thermodynamic formula, ΔG = - RT ln(Ka) and ΔG = ΔH - TΔS. […]"}},
  "data": [
    {"smiles": "O=P(O)(O)O[C@H]1[C@H](OP(=O)(O)O)[C@@H](OP(=O)(O)O)[C@H](OP(=O)(O)O)[C@@H](OP(=O)(O)O)[C@H]1OP(=O)(O)O", "note": "[IP6, inositol hexaphosphate]", "values": [
      {"measurement": "Kd", "setting": "Ku", "result": 0.046, "unit": "µM"},
      {"measurement": "effect on Ku thermal stability", "setting": "KuFL", "result": "no significant effect"},
      {"measurement": "extra thermal stabilization by IP6", "setting": "[1]", "result": "no extra stabilization"},
      {"measurement": "effect on Ku-DNA interaction", "setting": "KuFL-DNA interaction", "result": "slight stimulation of the interaction"},
      {"measurement": "interaction between S. cerevisae Ku and IP6", "setting": "S. cerevisae Ku", "result": "absence of interactions"},
      {"measurement": "interaction with IP6 as measured by ITC", "setting": "[2]", "result": "no interaction"}
    ]}
  ]
}
